Measurements as given in ChEMBL document CHEMBL1141141, “Novel, highly potent adenosine deaminase inhibitors containing the pyrazolo[3,4-d]pyrimidine ring system. Synthesis, structure-activity relationships, and molecular modeling studies” (J Med Chem, 2005).

Assays:
Adenosine deaminase [1] = target: T1, Adenosine deaminase (Bos taurus, UniProt P56658)
T1 sequence (P56658 whole entry): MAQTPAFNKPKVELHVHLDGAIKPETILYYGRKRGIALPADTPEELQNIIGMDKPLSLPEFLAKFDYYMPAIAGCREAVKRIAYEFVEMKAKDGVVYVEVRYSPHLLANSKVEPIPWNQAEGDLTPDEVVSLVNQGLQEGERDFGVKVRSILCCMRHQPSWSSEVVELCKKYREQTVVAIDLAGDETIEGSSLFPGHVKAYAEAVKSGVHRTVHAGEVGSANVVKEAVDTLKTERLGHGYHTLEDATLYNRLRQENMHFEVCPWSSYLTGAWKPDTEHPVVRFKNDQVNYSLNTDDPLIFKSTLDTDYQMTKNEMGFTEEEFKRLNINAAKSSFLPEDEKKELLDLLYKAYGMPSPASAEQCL

Adenosine deaminase [2] = target: T1, Adenosine deaminase; assay: Inhibitory constant against bovine spleen Adenosine deaminase at >10e-5; n.a.=not active; format: tissue-based

| SMILES | Ki (Adenosine deaminase [1]) [nM] | Ki (Adenosine deaminase [2]) |
| --- | --- | --- |
| CCCCCCC(O)Cn1cc2c(N)ncnc2n1 (stereo not drawn) | 1 | – |
| CCCCCCn1cc2c(N)ncnc2n1 | – | Not Active |
| Nc1ncnc2nn(CCc3ccccc3)cc12 | – | Not Active |
| CCCCCCCCCCn1cc2c(NC(C)=O)ncnc2n1 | – | Not Active |
| Nc1ncnc2nn(Cc3ccccc3)cc12 | – | Not Active |
| CCCCCCCCCCCCn1cc2c(N)ncnc2n1 | – | Not Active |
| CCCCCCCCCCn1cc2c(N)nc(-c3ccccc3)nc2n1 | – | Not Active |

The remaining lines, values ahead:

| Ki (Adenosine deaminase [1]) [nM] | Ki (Adenosine deaminase [2]) | SMILES |
| --- | --- | --- |
| – | Not Active | CCCCCCC(O)CN1N=CC2C(N)=NC=NC21 (stereo not drawn) |
| – | Not Active | CCCCCCCCCCCCN1N=CC2C(N)=NC=NC21 (stereo not drawn) |
| 0.053 | – | CCCCCCCC[C@@H](O)Cn1cc2c(N)ncnc2n1 |
| – | Not Active | NC1=NC=NC2C1C=NN2CCc1ccccc1 (stereo not drawn) |
| 4620 | – | NC1=NC=NC2C1C=NN2CCO (stereo not drawn) |
| 0.28 | – | CCCCCCCCC(O)Cn1cc2c(N)ncnc2n1 (stereo not drawn) |
| 37.5 | – | CCCCCCCC[C@H](O)Cn1cc2c(N)ncnc2n1 |
| 66.1 | – | CCCCCCC(C(C)O)N1N=CC2C(N)=NC=NC21 (stereo not drawn) |
| – | Not Active | CCCCCCCCCCN1N=CC2C(N)=NC=NC21 (stereo not drawn) |
| – | Not Active | CCCCCCCCCCCN1N=CC2C(N)=NC=NC21 (stereo not drawn) |
| – | Not Active | NC1=NC=NC2C1C=NN2Cc1ccccc1 (stereo not drawn) |
